The assay addresses LRRK2 (Homo sapiens (Human), UniProt Q5S007, G2019S). Briefly: In Vitro LRRK2 LabChip Assay (LRRK2 Ki). The format is biochemical. On the procedure:
In Vitro LRRK2 LabChip Assay
This assay was used to determine a compound's potency in inhibiting activity of LRRK2 by determining, Kiapp, IC50, or percent inhibition values. In a polypropylene plate, LRRK2, fluorescently-labeled peptide substrate, ATP and test compound were incubated together. Using a LabChip 3000 (Caliper Life Sciences), after the reaction the substrate was separated by capillary electrophoresis into two populations: phosphorylated and unphosphorylated. The relative amounts of each were quantitated by fluorescence intensity. LRRK2 Ki was determined according to the equation: Y=V0*(1−((x+Ki*(1+S/Km)+Et)/(2*Et)−(((x+Ki*(1+S/Km)+Et)^2−(4*Et*x))^0.5)/(2*Et))). Ki values in Table 4 and elsewhere herein are shown in μM.
Assay conditions and materials used were as follows:
Kinase reaction time: 2 hours
Wild type in 5 mM MgCl2: 80 μM
Solid Support: Black 50 μL volume polypropylene 384 well plate (MatriCal cat #MP101-1-PP)
Non-binding plate: 384 well clear V-bottom polypropylene plates (Greiner cat #781280).
ATP: 10 mM ATP (Cell Signaling cat #9804).
Coating Reagent #3: Coating Reagent #3 (Caliper).
Complete Reaction Buffer: H2O/25 mM Tris, pH 8.0/5 mM MgCl2/2 mM DTT/0.01% Triton X-100.
Stop Solution: H2O/100 mM HEPES, pH 7.2/0.015% Brij-35/0.2% Coating Reagent #3/20 mM EDTA.
Separation Buffer: H2O/100 mM HEPES, pH 7.2/0.015% Brij-35/0.1% Coating Reagent #3/1:200 Coating Reagent #8/10 mM EDTA/5% DMSO.
Compound Plate Preparation:
For serial dilutions, 34.6 μl DMSO was added to columns 3-24. For the assay controls, 37.5 μl DMSO was added to columns 1 and 2 of rows A and P. a,d and 50 μl 25 μM G-028831 (Staurosporine) was added to columns 1 and 2, row B. For the samples: to start at 100 μM, 37.5 μl DMSO was to columns 1 and 2, then 12.5 μl 10 mM compound; to start at 10 μM, 78 μl DMSO was added to columns 1 & 2, then 2 μl 10 mM compound; and to start at 1 μM, 25 μM compound (2 μl 10 mM cmpd+798 μl DMSO) was added to empty columns 1 and 2. A Precision instrument was used to perform 1:3.16 serial dilutions (“PLK_BM_serial_halflog”).
ATP was diluted to 282.1 μM in Complete Kinase Buffer (final concentration was 130 μM).
Total and Blank Preparation:
In Complete Reaction Buffer, substrate was diluted to 4 μM. Equal volumes of Complete Reaction Buffer and 4 μM substrate were combined to obtain the blank. Equal volumes of Complete Reaction Buffer and 4 μM substrate were combined and to the combined solution was added 2× final LRRK2 concentration.
To a 50 μl polypropylene plate, 5 μl/well buffer/substrate was added by hand to Blank wells. A Biomek FX was used to start the kinase reaction (“PLK SAR 23 ATP”). The following were added to the appropriate wells:
5 μl/well compound/ATP in Assay Plate;
5 μl/well kinase/substrate in Assay Plate;
The plate was incubated for 2 hours in the dark. Biomek FX was used to stop the kinase reaction (“PLK Stop”), and 10 μl/well Stop solution was added to the Assay Plate. Results were read on the LabChip 3000.
The LabChip 3000 was run using the job “LRRK2 IC50” with the following job settings:
Downstream voltage: −500 V
Upstream voltage: −2350 V
Post sample buffer sip time: 75 seconds
Post dye buffer sip time: 75 seconds
Final delay time: 200 seconds

Sequence of LRRK2 (Q5S007 970-2527 G2019S): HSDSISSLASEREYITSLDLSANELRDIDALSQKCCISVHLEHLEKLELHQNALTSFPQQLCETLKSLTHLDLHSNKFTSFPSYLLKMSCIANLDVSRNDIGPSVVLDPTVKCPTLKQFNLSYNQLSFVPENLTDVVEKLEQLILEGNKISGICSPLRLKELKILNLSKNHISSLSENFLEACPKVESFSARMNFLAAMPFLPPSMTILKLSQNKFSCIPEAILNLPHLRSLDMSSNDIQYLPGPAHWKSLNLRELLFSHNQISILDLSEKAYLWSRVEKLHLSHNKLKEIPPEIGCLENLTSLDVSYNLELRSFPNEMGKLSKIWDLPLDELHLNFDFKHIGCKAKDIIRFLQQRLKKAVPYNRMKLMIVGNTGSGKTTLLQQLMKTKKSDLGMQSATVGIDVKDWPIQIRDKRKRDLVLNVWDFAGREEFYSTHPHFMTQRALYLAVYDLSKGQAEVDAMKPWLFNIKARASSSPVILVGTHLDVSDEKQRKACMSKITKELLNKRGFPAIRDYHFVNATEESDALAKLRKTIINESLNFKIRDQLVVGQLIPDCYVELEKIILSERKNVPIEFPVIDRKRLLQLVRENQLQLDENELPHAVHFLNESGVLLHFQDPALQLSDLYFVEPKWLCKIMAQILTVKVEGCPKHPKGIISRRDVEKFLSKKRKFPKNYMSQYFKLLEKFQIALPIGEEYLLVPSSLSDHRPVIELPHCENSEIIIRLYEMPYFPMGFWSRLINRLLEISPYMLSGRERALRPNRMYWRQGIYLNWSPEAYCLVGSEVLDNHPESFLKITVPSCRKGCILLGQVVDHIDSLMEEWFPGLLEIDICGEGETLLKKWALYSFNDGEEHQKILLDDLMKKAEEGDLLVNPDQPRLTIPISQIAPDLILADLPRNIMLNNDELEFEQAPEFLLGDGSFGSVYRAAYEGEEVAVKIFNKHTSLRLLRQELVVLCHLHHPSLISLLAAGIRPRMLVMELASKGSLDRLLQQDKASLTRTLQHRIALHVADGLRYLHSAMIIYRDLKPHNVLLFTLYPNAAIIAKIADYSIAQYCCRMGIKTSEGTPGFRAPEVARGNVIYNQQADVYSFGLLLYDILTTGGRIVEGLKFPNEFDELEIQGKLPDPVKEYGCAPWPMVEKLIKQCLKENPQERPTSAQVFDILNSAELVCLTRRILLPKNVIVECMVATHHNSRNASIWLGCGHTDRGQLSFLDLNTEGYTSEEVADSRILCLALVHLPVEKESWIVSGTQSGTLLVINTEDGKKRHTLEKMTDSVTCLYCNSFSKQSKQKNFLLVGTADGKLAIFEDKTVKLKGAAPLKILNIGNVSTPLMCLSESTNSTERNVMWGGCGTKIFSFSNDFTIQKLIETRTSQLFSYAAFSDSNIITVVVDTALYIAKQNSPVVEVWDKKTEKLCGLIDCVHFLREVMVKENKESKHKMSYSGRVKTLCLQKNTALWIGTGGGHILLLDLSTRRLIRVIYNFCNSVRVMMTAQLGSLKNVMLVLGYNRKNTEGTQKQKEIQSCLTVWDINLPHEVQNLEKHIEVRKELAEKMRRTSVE

Consider `CCNc1nc(Nc2cc(F)c(CN3CCOCC3)cc2OC)ncc1C#N` [Example 12, 4-Ethylamino-2-(5-fluoro-2-methoxy-4-morpholin-4-ylmethyl-phenylamino)-pyrimidine-5-carbonitrile], for which the affinity corresponds to a Ki of 14 nM. In the case of `CNc1nc(Nc2cc(Cl)c(S(C)(=O)=O)cc2OC)ncc1C(F)(F)F` [Example 20, N2-(5-Chloro-4-methanesulfonyl-2-methoxy-phenyl)-N4-methyl-5-trifluoromethyl-pyrimidine-2,4-diamine] it was 1 nM; in that of `CNc1nc(Nc2ccc(C(F)(F)F)cc2OC)ncc1C(F)(F)F` [Example 27, N2-(2-methoxy-4-(trifluoromethyl)phenyl)-N4-methyl-5-(trifluoromethyl)pyrimidine-2,4-diamine], 23 nM. In the case of `CNc1nc(Nc2ccc(S(=O)(=O)N3CCOCC3)cc2OC)ncc1C(F)(F)F` [Example 26, N2-(2-methoxy-4-(morpholinosulfonyl)phenyl)-N4-methyl-5-(trifluoromethyl)pyrimidine-2,4-diamine] it was 47 nM; in that of `CNc1nc(Nc2cc(F)c(CN3CCOCC3)cc2OC)ncc1C#N` [Example 11, 2-(5-Fluoro-2-methoxy-4-morpholin-4-ylmethyl-phenylamino)-4-methylamino-pyrimidine-5-carbonitrile], 27 nM. For `CNc1nc(Nc2cc(C)c(S(C)(=O)=O)cc2OC)ncc1C(F)(F)F` [Example 23, N2-(4-Methanesulfonyl-2-methoxy-5-methyl-phenyl)-N4-methyl-5-trifluoromethyl-pyrimidine-2,4-diamine] the value was 0.3 nM; for `CCNc1nc(Nc2cc(C)c(S(C)(=O)=O)cc2OC)ncc1C(F)(F)F` [Example 34, N4-ethyl-N2-(2-methoxy-5-methyl-4-(methylsulfonyl)phenyl)-5-(trifluoromethyl)pyrimidine-2,4-diamine], 3 nM. Regarding `CNc1nc(Nc2ccc(S(C)(=O)=O)cc2Cl)ncc1Cl` [Example 8, 5-Chloro-N2-(2-chloro-4-methanesulfonyl-phenyl)-N4-methyl-pyrimidine-2,4-diamine], the affinity corresponds to a Ki of 8 nM. For `CNc1nc(Nc2ccc(C#N)cc2OC)ncc1Cl` [Example 5, 4-(5-Chloro-4-(methylamino)pyrimidin-2-ylamino)-3-methoxybenzonitrile] the value was 8 nM; for `CNc1nc(Nc2cc(F)c(CN3CCOCC3)cc2OC)ncc1C(F)(F)F` [Example 37, N2-(5-fluoro-2-methoxy-4-(morpholinomethyl)phenyl)-N4-methyl-5-(trifluoromethyl)pyrimidine-2,4-diamine], 56 nM; for `CNc1nc(Nc2cc(F)c(CN3CCOCC3)cc2OCCF)ncc1C(F)(F)F` [Example 21, N2-[5-Fluoro-2-(2-fluoro-ethoxy)-4-morpholin-4-ylmethyl-phenyl]-N4-methyl-5-trifluoromethyl-pyrimidine-2,4-diamine], 4 nM. `CNc1nc(Nc2cc(C)c(C#N)cc2OC)ncc1C(F)(F)F` [Example 13, 5-Methoxy-2-methyl-4-(4-methylamino-5-trifluoromethyl-pyrimidin-2-ylamino)-benzonitrile]: the Ki was 12 nM.

In the case of `CNc1nc(Nc2cc(F)c(C3COC3)cc2OC)ncc1C(F)(F)F` [Example 33, N2-(5-fluoro-2-methoxy-4-(oxetan-3-yl)phenyl)-N4-methyl-5-(trifluoromethyl)pyrimidine-2,4-diamine], the Ki amounted to 3 nM. For `CNc1nc(Nc2cc(C)c(S(C)(=O)=O)cc2OC)ncc1C(F)(F)F` [Example 36, N2-(2-methoxy-5-methyl-4-(methylsulfonyl)phenyl)-N4-methyl-5-(trifluoromethyl)pyrimidine-2,4-diamine] the value was 3 nM; for `CNc1nc(Nc2cc(Cl)c(C(=O)O)cc2OC)ncc1Cl` [Example 29, 2-chloro-4-(5-chloro-4-(methylamino)pyrimidin-2-ylamino)-5-methoxybenzoic acid], 36 nM.

Turning to `CNc1nc(Nc2ccc(S(C)(=O)=O)cc2OC)ncc1C(F)(F)F` [Example 1, N2-(2-Methoxy-4-(methylsulfonyl)phenyl)-N4-methyl-5-(trifluoromethyl)pyrimidine-2,4-diamine], the Ki turned out to be 2 nM.

Compound `CNc1nc(Nc2cc(F)c(N3CCOCC3=O)cc2OC)ncc1C(F)(F)F` [Example 31, 4-(2-fluoro-5-methoxy-4-(4-(methylamino)-5-(trifluoromethyl)pyrimidin-2-ylamino)phenyl)morpholin-3-one] registered a Ki of 3 nM. For `COc1nc(Nc2ccc(S(C)(=O)=O)cc2Cl)ncc1Cl` [Example 6, (2-Chloro-4-methanesulfonyl-phenyl)-(5-chloro-4-methoxy-pyrimidin-2-yl)-amine] the value was 61 nM. For `CNc1nc(Nc2ccc(C(F)(F)F)cc2OC)ncc1Cl` [Example 28, 5-chloro-N2-(2-methoxy-4-(trifluoromethyl)phenyl)-N4-methylpyrimidine-2,4-diamine] the value was 35 nM; for `CNc1nc(Nc2ccc(N3CCOCC3)cc2OC)ncc1Cl` [Example 24, 5-chloro-N2-(2-methoxy-4-morpholinophenyl)-N4-methylpyrimidine-2,4-diamine], 9 nM.

Consider `CCS(=O)(=O)c1cc(OC)c(Nc2ncc(C(F)(F)F)c(NC)n2)cc1C` [Example 35, N2-(4-(ethylsulfonyl)-2-methoxy-5-methylphenyl)-N4-methyl-5-(trifluoromethyl)pyrimidine-2,4-diamine], for which the affinity, expressed as Ki, was 3 nM. For `CNc1nc(Nc2ccc(S(C)(=O)=O)cc2OCCF)ncc1C(F)(F)F` [Example 19, N2-[2-(2-Fluoro-ethoxy)-4-methanesulfonyl-phenyl]-N4-methyl-5-trifluoromethyl-pyrimidine-2,4-diamine] the value was 3 nM; for `CCNc1nc(Nc2cc(F)c(CN3CCOCC3)cc2OCCF)ncc1C(F)(F)F` [Example 22, N4-Ethyl-N2-[5-fluoro-2-(2-fluoro-ethoxy)-4-morpholin-4-ylmethyl-phenyl]-5-trifluoromethyl-pyrimidine-2,4-diamine], 2 nM; for `CNc1nc(Nc2ccc(CN3CCOCC3)cc2OC)ncc1C(F)(F)F` [Example 9, N2-(2-Methoxy-4-morpholin-4-ylmethyl-phenyl)-N4-methyl-5-trifluoromethyl-pyrimidine-2,4-diamine], 3 nM. In the case of `CNc1nc(Nc2ccc(S(C)(=O)=O)cc2OCCF)ncc1Cl` [Example 17, 5-Chloro-N2-[2-(2-fluoro-ethoxy)-4-methanesulfonyl-phenyl]-N4-methyl-pyrimidine-2,4-diamine] it was 12 nM; in that of `CNc1nc(Nc2cc(F)c(C#N)cc2OC)ncc1C(F)(F)F` [Example 3, 2-Fluoro-5-methoxy-4-(4-(methylamino)-5-(trifluoromethyl)pyrimidin-2-ylamino)benzonitrile], 22 nM; in that of `CNc1nc(Nc2ccc(C(=O)O)cc2OC)ncc1Cl` [Example 25, 4-(5-chloro-4-(methylamino)pyrimidin-2-ylamino)-3-methoxybenzoic acid], 7 nM. For `CNc1nc(Nc2ccc(S(C)(=O)=O)cc2Cl)ncc1C(F)(F)F` [Example 7, N2-(2-Chloro-4-methanesulfonyl-phenyl)-N4-methyl-5-trifluoromethyl-pyrimidine-2,4-diamine] the value was 8 nM.

A word on the Ki: it is a dissociation constant, usually derived from enzyme kinetics or from competition with a known ligand.

Values taken from patent publication US9145402B2, “Aminopyrimidine derivatives as LRRK2 modulators” (Genentech, Inc., priority 2011, dated 2015).
